In patent publication US20050282793A1, “Steroid prodrugs with androgenic action” (priority 2004, published 2005):
Where two headings read alike, the source gives them in different places.

How the values were obtained:
erythrocytes = assay: Binding to erythrocytes: displacement of estradiol-3-sulfamate from the erythrocyte bond (RBA); design: species or system human; settings: for RBA in Erythrocytes: human blood, displacement of 14C-labeled estradiol sulfamate, estradiol-3-sulfamate = 100
Experimental: The SO2—NH2 group of the compounds according to the invention can result in a concentration in erythrocytes by binding to carboanhydrases. The displacement of estradiol-3-sulfamate from the erythrocyte bond by test substances is measured. Test preparation: human blood is mixed with a mixture that consists of ^14C-labeled and unlabeled estradiol sulfamate. The erythrocytes are saturated at the selected working point. The distribution in plasma/erythrocytes is 40:60. A second blood sample is mixed with a mixture that consists of ^14C-labeled estradiol sulfamate and unlabeled test substance. The relative binding affinity is calculated from the proportion of ^14C-labeled estradiol sulfamate in plasma: higher proportion=strong displacement of ^14C-estradiol sulfamate from the erythrocytes by the test substance=high binding affinity of the test substances to the erythrocytes.

[1] = Determination of the erythrocyte/plasma distribution ratio; type: in vitro ADME; settings: freshly obtained, heparinized blood
Experimental: Freshly obtained, heparinized blood is mixed with a defined amount of test substance. The concentration in the plasma obtained therefrom is measured. The erythrocyte/plasma distribution ratio is calculated from the measured concentration of the entire substance in plasma and the concentration that is used.

Human Carboanhydrase I = Human Carboanhydrase I (Homo sapiens, UniProt P00915); assay: Carboanhydrase I inhibition (CO2 hydration); type: biochemical
Sequence of Human Carboanhydrase I (P00915 whole entry): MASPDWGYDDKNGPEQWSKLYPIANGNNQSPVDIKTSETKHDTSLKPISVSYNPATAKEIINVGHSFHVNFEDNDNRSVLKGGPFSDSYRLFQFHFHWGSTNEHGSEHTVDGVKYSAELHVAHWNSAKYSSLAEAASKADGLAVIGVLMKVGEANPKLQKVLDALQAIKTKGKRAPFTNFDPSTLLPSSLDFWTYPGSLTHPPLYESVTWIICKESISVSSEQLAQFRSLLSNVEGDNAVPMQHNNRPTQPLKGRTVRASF
Experimental: Carboanhydrases catalyze the CO2 hydration.
Test preparation: A constant CO2 stream is directed by a buffer that was mixed with carboanhydrase I. The time that is required to reduce the pH within defined limits is a measuring parameter. This parameter reflects the formation of H2CO3 in the medium. IC50 inhibiting values are determined by test substances being pipetted into the test preparation.

[2] = test system: sexually mature, castrated male rats; assay: Test (II), oral treatment over 7 days, evaluation on day 8; type: in vivo, rat
Experimental: Test (II) on Sexually Mature, Castrated Male Rats Over 8 Days
(§1) • Method: Adult male rats, of about 300 g of body weight, are castrated and treated orally over 7 days with MENT and compound 12 according to the invention. On the 8th day of the test, the animals are sacrificed, and the hormonal effects of the test substances are evaluated (growth of the accessory sex glands, reduction of the gonadotropic hormones in plasma, parameters of hepatic actions: effects on HDL lipoproteins, determination of MENT in the plasma). Test (III) on Gonadally Intact Adult Sexually Mature Rats Over 6 Weeks

[3] = test system: gonadally intact, adult, sexually mature rats; assay: Test (III), oral treatment over 6 weeks; type: in vivo, rat
Experimental: as §1
• Method: Adult male rats of above 300 g of body weight are treated orally over 6 weeks with MENT and compounds 12 or 5 according to the invention. At the end of the test, the animals are sacrificed, and the hormonal effects of the test substances are evaluated (weight of the testes and the accessory sex glands, reduction of the gonadotropic hormones and testosterone in the plasma during the course of the test, parameters of hepatic actions: effects on HDL lipoproteins).

[4] = test system: accessory sex glands (prostate); assay: Hershberger Test (comparison of m- and p-substituted compound; test not specified); type: in vivo, rat; settings: m-substituted compound 12 compared to p-substituted compound 11
[5] = test system: sexually immature, castrated male rats; assay: Test (I), oral treatment over 7 days, evaluation on day 8; type: in vivo, rat
Experimental: Test (I) on Sexually Immature, Castrated Male Rats Over 8 Days
Method: Male rats weighing about 45 g of body weight are castrated and treated orally over 7 days with MENT and with compounds 12 or 18 according to the invention. On the 8th day of the test, the animals are sacrificed, and the hormonal effects of the test substances are evaluated (growth of the accessory sex glands, reduction of gonadotropic hormones in plasma, parameters of hepatic actions: effects on HDL lipoproteins).

SMILES | RBA in Erythrocytes (erythrocytes) | Distribution Ratio with Erythrocytes/Plasma [1] | growth of the accessory sex glands [5] | IC50 (Human Carboanhydrase I) [nM] | further results
C[C@]12CC[C@H]3[C@@H](CCC4=CC(=O)CC[C@@]43C)[C@@H]1CC[C@@H]2OC(=O)CCc1ccc(S(N)(=O)=O)cc1 [Compound 14, 3-Oxoandrost-4-en-17β-yl 4′-sulfamoylphenylpropionate] | 3.4 | 4 | – | – | –
C[C@@H]1CC2=CC(=O)CC[C@@H]2[C@H]2CC[C@]3(C)[C@@H](OC(=O)c4ccc(S(N)(=O)=O)cc4)CC[C@H]3[C@@H]21 [Compound 11, 3-Oxo-7α-methylestr-4-en-17β-yl 4′-sulfamoyl benzoate] | – | – | – | – | IC50 (Human Carboanhydrase I; human carboanhydrase I, read-out: CAI IC50): 200 to 400 nM
C[C@@H]1CC2=CC(=O)CC[C@@H]2[C@H]2CC[C@]3(C)[C@@H](OC(=O)c4cccc(S(N)(=O)=O)c4)CC[C@H]3[C@@H]21 [Compound 12, 3-Oxo-7α-methylestr-4-en-17β-yl 3′-sulfamoyl benzoate] | 2.1 | 3 | strong dose-dependent effects on the growth of the accessory sex glands | 600 | bond strength to the erythrocytes (in words) (erythrocytes; m-substituted versus 4'-sulfamoyl benzoates): lower bond strength to the erythrocytes; levels of MENT in the plasma ([2]; after oral administration): significantly higher levels of MENT are achieved in the plasma than after the administration of MENT itself; growth of the accessory sex glands ([2]; oral, 7 days): unexpectedly strong, dose-dependent effects on the growth of the accessory sex glands; antigonadotropic effects [3]: Superior antigonadotropic effects; effects on the accessory sex glands (weights of seminal vesicles and prostates) [3]: induced in a dose-dependent way an increase of the weights of the seminal vesicles and prostates beyond the level of intact controls; activity in the Hershberger Test [4]: higher activity in the Hershberger Test compared to the p-substituted compound 11
C[C@]12CC[C@H]3[C@@H](CCC4=CC(=O)CC[C@@H]43)[C@@H]1CC[C@@H]2OC(=O)c1ccc(S(N)(=O)=O)cc1 [Compound 8, 3-Oxoestr-4-en-17β-yl 4′-sulfamoyl benzoate] | 24 | 7 | – | – | –
COc1ccc(S(N)(=O)=O)cc1C(=O)O[C@H]1CC[C@H]2[C@@H]3CCC4=CC(=O)CC[C@]4(C)[C@H]3CC[C@]12C [Compound 4, 3-Oxoandrost-4-en-17β-yl 2′-methoxy-5′-sulfamoyl benzoate] | 0.8 | 2 | – | – | –
C[C@]12CC[C@H]3[C@@H](CCC4=CC(=O)CC[C@@]43C)[C@@H]1CC[C@@H]2OC(=O)c1ccc(S(N)(=O)=O)cc1 [Compound 1, 3-Oxoandrost-4-en-17β-yl 4′-sulfamoyl benzoate] | 48 | 9 | – | 370 | –
C[C@@H]1CC2=CC(=O)CC[C@@H]2[C@H]2CC[C@]3(C)[C@@H](O)CC[C@H]3[C@@H]21 [MENT, 7α-methyl-19-nortestosterone, reference compound] | – | – | only marginal effects | – | growth of the accessory sex glands ([2]; oral, 7 days): only marginal effects; reduction of HDL ([2]; oral, 7 days): even more active than the substances according to the invention; effects on the accessory sex glands (weights of seminal vesicles and prostates) [3]: A corresponding effect even in the case of extremely high dosage did not occur; reduction of HDL [3]: even more effective than the substances according to the invention; reduction of HDL [5]: even more active than the substances according to the invention
C[C@]12CC[C@H]3[C@@H](CCC4=CC(=O)CC[C@@]43C)[C@@H]1CC[C@@H]2OC(=O)c1cccc(S(N)(=O)=O)c1 [Compound 5, 3-Oxoandrost-4-en-17β-yl 3′-sulfamoyl benzoate] | 1.3 | 2 | – | 880 | changes in hepatic parameters [3]: especially small changes in hepatic parameters
C[C@]12CC[C@@H]3c4ccc(OS(N)(=O)=O)cc4CC[C@H]3[C@@H]1CC[C@@H]2O [Estradiol-3-sulfamate, reference compound] | 100 | 48 | – | – | –
C[C@]12CC[C@H]3[C@@H](CCC4=CC(=O)CC[C@@]43C)[C@@H]1CC[C@@H]2OC(=O)c1cc(S(N)(=O)=O)ccc1O [Compound 18, 3-Oxoandrost-4-en-17β-yl 2′-hydroxy-5′-sulfamoyl Benzoate] | 1.4 | 2 | strong dose-dependent effects on the growth of the accessory sex glands | – | –
